Values joined by “and” are separate entries in the source; they are usually repeats but may differ in a detail not shown here. Equal values may be shown once. “Also recorded” adds a separate entry of the source.
What was measured:
[1] = 26-week rat GLP toxicity study; format: in vivo
[2] = test system: fibroblasts from patients harboring mitochondrial mutations (Leigh Syndrome/LHON, MELAS, KSS) and MERRF cybrid cell line; assay: Gene expression analysis in cells harboring mitochondrial mutations; format: cell-based, human; settings: for ACADVL expression: FIG. 3C
Source text: Leigh syndrome/Leber's hereditary optic neuropathy (LHON) cells were isolated from a patient diagnosed with both Leigh syndrome and LHON. This subject had two point mutations; one in the mtDNA-encoded ND4 gene (mutation 11778G>A) and one in the mtDNA encoded ND6 gene (mutation 14484T>C) in the NADH dehydrogenase complex. m.3243A>G MELAS (Mitochondrial encephalomyopathy, lactic acidosis, and stroke-like episodes) cells were isolated from a patient harboring the m.3243A>G mutation in the mtDNA-encoded tRNA-leucine gene. Kearns Sayre Syndrome (KSS) fibroblast cells were isolated from a patient harboring the 5 kilobase (Kb) common deletion and were obtained from the Coriell Institue along with a control fibroblast cell line. MERRF m.8344A>G osteosarcoma transmitochondrial cybrids were acquired from the Moraes lab (Masucci, J. P., M. P. Schon Ea Fau-King, and M. P. King, Point mutations in the mitochondrial tRNA(Lys) gene: implications for pathogenesis and mechanism. (0300-8177)).
MELAS m.3243A>G fibroblasts were grown in Eagle's minimum essential media (EMEM) supplemented with 10% heat inactivated FBS, 1 mM sodium pyruvate, 1× non-essential amino acids, 2 mM 1-glutamine, and 100 μg/ml of uridine. KSS fibroblasts were grown in EMEM supplemented with 15% heat inactivated FBS, 1× non-essential amino acids, and 100 μg/ml of uridine. Leigh/LHON syndrome fibroblast cell lines were grown in Dulbecco's modified eagle medium (DMEM) supplemented with 1 mM sodium pyruvate, 10% HI FBS, and 100 μg/ml of uridine. MERRF tRNA-LYS 8344 cybrid cells were grown in DMEM supplemented with 10% heat inactivated FBS, 1 mM sodium pyruvate and 100 μg/ml of uridine.
All cell lines with the exception of LHON/Leigh Syndrome fibroblasts were plated at a density of 50 k/well in 6 well plates. Compound (I) or 0.1% DMSO was added 8 hours later in complete media. Treatment media or vehicle media were refreshed 24 hours later for a total treatment time of 48 hours. LHON/Leigh Syndrome fibroblasts were plated and treated in the same manner but for a total treatment time of 24 hours.
mTotal RNA was isolated using NucleoSpin® kits (Macherey-Nagel) as per manufacturer's protocol. One microgram of total RNA was used to generate cDNA using the High-Capacity cDNA Reverse Transcription Kit (Applied Biosystems).
MELAS m.3243A>G fibroblasts, KSS Fibroblast and MERRF tRNA-Lys 8344 cybrid gene expression was performed using 5 ng cDNA and 300 nM of primers were mixed with water and iQ SYBR Green master mix, loaded in 384-well qPCR plates, and subsequently analyzed using a BioRad CFX384 Real-Time PCR Detection System. Fold change was calculated as ΔCt on a per sample basis was calculated as Ct (Gene of interest)−Ct (Average of reference genes). The ΔΔCt was then calculated as ΔCt (experimental sample)−Average ΔCt (control group). Fold change was calculated as 2^−ΔΔCT. LHON/Leigh Syndrome fibroblast cDNA was mixed with dH2O and SYBR Green master mix and 1 μM of primers were dispensed into the sample source plates and primer source plates in 384-well plates, respectively. Reactions were loaded into SmartChip (WaferGen Bio-systems) with Multisample Nanodispenser and the chip was analyzed in the SmartChip Cycler.
Raw expression data was exported from software and graphed after processing with reference genes and normalized against control using QBase software. To obtain normalized values, the calibrated normalized relative quantities (CNRQ) values of each sample were divided by the average CNRQ for all vehicle treated samples in order to make expression relative to the control group.

LHON/Leigh cells = assay: Mitochondrial fatty acid oxidation assay by high-resolution respirometry (palmitate-mediated OXPHOS); format: cell-based, human; settings: Leigh/LHON cell line, 24 hours treatment; FIG. 4B
Protocol: (§1) LHON/Leigh cells were treated with DMSO or Compound (I) in complete media supplemented with 0.5 mM carnitine for 24 hours prior to assaying. Treated cells were trypsinized, collected in Krebs-Henseleit Buffer (KHB) and pelleted.
(§2) Palmitate-mediated OXPHOS was measured using an Oxygraph-2k (Oroboros Instruments). Cells (1×10^6) in KHB were loaded into each chamber with 250 μM BSA or BSA-conjugated palmitate. KHB was added to reach a final volume of 2 mL. Respiration was measured at 37° C. as previously described in Zhang, Z., et al., Primary respiratory chain disease causes tissue-specific dysregulation of the global transcriptome and nutrient-sensing signaling network. (1932-6203). Briefly, BSA and BSA-conjugated palmitate treated cells were analyzed simultaneously in two separate chambers. […]
(§3) Data were analyzed using DatLab6 software. […] Non-mitochondrial respiration was measured after addition of Rotenone and Antimycin A sequentially (ROX, residual oxygen consumption, background) and subtracted from maximal respiration values. […]

PMM patient fibroblasts = assay: Fatty acid OXPHOS in PMM patient fibroblasts (FIG. 4B, all lines); format: cell-based, human; settings: 3, 9 and 30 nM
Protocol: as §1, §2, §3
FAO was measured using a Seahorse XF96 (Seahorse Biosciences). […]

Cc1cnc(-c2ccc(C(F)(F)F)cc2)n1Cc1ccccc1OCCC[C@@H](C)CC(=O)O [Compound (I), (R)-3-Methyl-6-(2-((5-methyl-2-(4-(trifluoromethyl)phenyl)-1H-imidazol-1-yl)methyl)-phenoxy)hexanoic acid]
no observed adverse effect level (NOAEL) [1]: highest tested dose | PDK4 transcript increase ([2]; 24 or 48 hour treatment, across all four cell lines tested, FIG. 3B): 10 to 50 fold and 10 to 100 fold | ANGPTL4 induction (marker of target engagement) ([2]; 24 or 48 hours treatment, FIG. 3A): large induction; also recorded: greatly induced | ACADVL expression ([2]; MELAS and MERRF cells, n=2, no statistical comparison): showed induction | CPT1A transcript induction ([2]; across all cell lines tested, FIG. 3D): approximately 2 fold | SLC25A20 expression ([2]; across all four cell lines tested, FIG. 3E): induced | Genes involved in the import, packaging and catabolism of fatty acids into the mitochondria for OXPHOS ([2]; across four cell lines with mitochondrial mutations, FIG. 3C-3E): upregulated | ACADVL expression ([2]; two of the lines tested): significantly upregulated | fatty acid-mediated OXPHOS (LHON/Leigh cells): significantly increased | fatty acid OXPHOS (PMM patient fibroblasts): increased

Source: patent US20240358681A1, “METHODS OF USE OF PPAR AGONIST COMPOUNDS AND PHARMACEUTICAL COMPOSITIONS THEREOF” (Mitobridge, Inc., priority 2021, published 2024)
